This note sets out measurements from US12492182B2, “Hydroxytriazine compounds and pharmaceutical use thereof” (Japan Tobacco Inc., priority 2015, dated 2025).

Read-outs that look alike come from different tables or passages of the source.

For one data set, the system named is A549 cell. The experiment in a line: Evaluation of PGE2 production inhibitory action using A549 cell (IL-1β stimulated). Type of data set: cell-based, human. In a few lines: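 A549 cells (human lung cancer) in F-12K with 2% FBS were preincubated with test article for 30 min, then stimulated with IL-1β (1 ng/mL final) for 18 hr at 37 °C; 0.5% DMSO final. Supernatant PGE2 was measured by HTRF against a standard curve; inhibition is relative to vehicle and unstimulated blank wells.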

Data set [1] can be described thus: Measurement of solubility in Britton-Robinson buffer solution (pH 8.5) containing 0.5 W/V % polysorbate 80. Type of data set: physicochemical. The conditions noted are these: Britton-Robinson buffer pH 8.5 containing 0.5 W/V % polysorbate 80, 20° C., 18 hr. The protocol: Experimental Example 5: Measurement of Solubility
(2) Britton-Robinson Buffer Solution (pH 8.5) Containing 0.5 W/V % Polysorbate 80
The test article was weighted in glass microtube, and dispersed in Britton-Robinson buffer solution (pH 8.5, 1.5 mL) containing 0.5 W/V % polysorbate 80 to prepare a suspension. The suspension was shaked at 20° C. for 18 hr, and filtered through a membrane filter (0.45 μm), and the filtrate was used as a sample.
(3) Preparation of Standard Solution and Sample Solution, and Measurement of Solubility
Sample solution was prepared by appropriately diluting sample with a mixture of water/acetonitrile (1:1). Standard solution was prepared by precisely weighting the test article, and then diluting the test article with a mixture of water/acetonitrile (1:1). The standard solution and sample solution were analyzed by liquid chromatography, and the test article content of the sample solution was calculated according to external standard method, based on which the solubility was determined.

For another data set, the target named is T1, human mPGES-1 (Homo sapiens, UniProt O14684).
T1 construct: made in house; host or cells: Chinese hamster ovary-derived cells (FreeStyle CHO-S), transient transfection of pcDNA3.1(+)/human mPGES-1; microsome fraction
T1 sequence (O14684 1-152): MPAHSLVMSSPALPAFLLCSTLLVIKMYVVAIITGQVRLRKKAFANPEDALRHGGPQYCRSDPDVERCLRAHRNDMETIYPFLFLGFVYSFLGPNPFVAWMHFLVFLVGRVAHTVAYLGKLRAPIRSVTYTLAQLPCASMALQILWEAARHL
In words: Evaluation of human mPGES-1 enzyme inhibitory activity (HTRF measurement of PGE2). To be noted: IC50 value; microsome fraction of CHO-S cells expressing human mPGES-1, PGH2 substrate, PGE2 by HTRF; read-out: humans mPGES-1 enzyme inhibitory activity. Type of data set: biochemical. In short, it runs like this:
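Enzyme source was a microsome fraction from CHO-S cells transfected with human mPGES-1, diluted to 5 μg/mL protein in reduced GSH (12.5 mmol/L KPB), preincubated with compound for 10 min at room temperature with 2% final DMSO. Reaction started with PGH2 and run 45 seconds at room temperature. PGE2 measured by HTRF.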

Setting [2] is: Homo sapiens, A549, A549 cell, recombinant human IL-1β stimulation, read-out: cell PGE2 production inhibitory activity (IC50 value).
[3] abbreviates: Homo sapiens, A549, 18 h, IC50 value, A549 cell, recombinant IL-1β 1 ng/mL, 18 hr, PGE2 in supernatant, read-out: cell PGE2 production inhibitory activity.

In the case of `CO[C@](C)(C(=O)NCc1ccc(Cl)c(-c2nc(O)nc(-c3cccc(C(C)(C)C)c3)n2)c1)C(F)(F)F` [Example 66, (R)—N-{3-[4-(3-tert-butylphenyl)-6-hydroxy-1,3,5-triazin-2-yl]-4-chlorobenzyl}-3,3,3-trifluoro-2-methoxy-2-methylpropionamide], the IC50 came out at 3.8 nM in the data set with A549 cell (setting [2]) and 0.7 nM at human mPGES-1. In addition, the “0.5% polysorbate 80 solubility (%) at pH 8.5” value (“0.5% polysorbate 80 solubility” for short) in data set [1] worked out at 0.136%.

For `CC(C)c1cccc(-c2nc(O)nc(-c3cc(CNC(=O)C4(C(F)(F)F)CCCCC4)ccc3Cl)n2)c1` [Example 71, 1-trifluoromethylcyclohexanecarboxylic acid 4-chloro-3-[4-hydroxy-6-(3-isopropylphenyl)-1,3,5-triazin-2-yl]benzylamide], the figures for the IC50 in the data set on A549 cell (setting [2]) and at human mPGES-1 were 3.4 nM and 0.7 nM, respectively. The “0.5% polysorbate 80 solubility” value in data set [1] was 0.057%.

`CCCCCCOc1ccc(-c2nc(O)nc(-c3cc(CNC(=O)C(C)(C)OC)ccc3Cl)n2)cn1` [Example 81, N-{4-chloro-3-[4-(6-hexyloxypyridin-3-yl)-6-hydroxy-1,3,5-triazin-2-yl]benzyl}-2-methoxy-2-methylpropionamide]: the IC50 with A549 cell (setting [2]) was found to be 5 nM; at human mPGES-1, 2.1 nM. The “0.5% polysorbate 80 solubility” value in data set [1] was 0.071%.

For the compound `CCC[C@H](C)Oc1ccc(-c2nc(O)nc(-c3cc(CNC(=O)C(CC)(CC)CF)ccc3Cl)n2)cn1` [Example 131], the values for the IC50 in the data set with A549 cell (setting [2]) and at human mPGES-1 were 1.9 nM and 2.9 nM, respectively. The “0.5% polysorbate 80 solubility” value in data set [1] is listed as 0.109%.

As for `CCOC(C)(C)C(=O)NCc1ccc(Cl)c(-c2nc(O)nc(-c3cccc(C(C)C)c3)n2)c1` [Example 17], the results for the IC50 in the data set with A549 cell (setting [3]) and at human mPGES-1 were 1300 nM and 67 nM, respectively.

With `CC(C)c1cccc(-c2nc(O)nc(-c3cc(CNC(=O)C4(CF)CCCCCC4)ccc3Cl)n2)c1` [Example 111], the IC50 in the data set on A549 cell (setting [2]) came out at 54 nM; on human mPGES-1, 1.5 nM.

For the compound `CC1(c2cccc(-c3nc(O)nc(-c4cc(CNC(=O)C(C)(C)C(F)(F)F)ccc4Cl)n3)c2)CC1` [Example 49, N-(4-chloro-3-{4-hydroxy-6-[3-(1-methylcyclopropyl)phenyl]-1,3,5-triazin-2-yl}benzyl)-3,3,3-trifluoro-2,2-dimethylpropionamide], the IC50 in the data set with A549 cell (setting [3]) turned out to be 7.3 nM; at human mPGES-1, 0.5 nM.

In the case of `CCCOc1ccc(-c2nc(O)nc(-c3cc(CNC(=O)C4(C(F)(F)F)CCCC4)ccc3Cl)n2)cn1` [Example 45], the IC50 in the data set on A549 cell (setting [3]) turned out to be 8 nM; at human mPGES-1 it was 1.3 nM.

With `CC(C)c1cc(-c2nc(O)nc(-c3cc(CNC(=O)C4(C(F)F)CCCCC4)ccc3Cl)n2)ccc1Cl` [Example 108], the IC50 in the data set on A549 cell (setting [2]) and on human mPGES-1 was 2.4 nM throughout.

In the case of `CCCCCCOc1ccc(-c2nc(O)nc(-c3cc(CNC(=O)[C@@](C)(OC)C(F)(F)F)ccc3Cl)n2)cn1` [Example 83], the IC50 was 2.7 nM with A549 cell (setting [2]) and 5 nM at human mPGES-1.

As for `CCC[C@@H](C)Oc1ccc(-c2nc(O)nc(-c3cc(CNC(=O)C(CC)(OC)C(F)(F)F)ccc3Cl)n2)cn1` (single isomer, unassigned) [Example 142], the results for the IC50 in the data set with A549 cell (setting [2]) and at human mPGES-1 were 2.1 nM and 7.7 nM, respectively.

Turning to `CCC[C@@H](C)Oc1ccc(-c2nc(O)nc(-c3cc(CNC(=O)C4(C(F)F)CCCCC4)ccc3Cl)n2)cn1` [Example 127], the IC50 was 0.9 nM with A549 cell (setting [2]) and 2.4 nM on human mPGES-1.

For `COc1ccc(-c2nc(O)nc(-c3cc(CNC(=O)C4(C(F)(F)F)CCCCC4)ccc3Cl)n2)cn1` [Example 30], the figures for the IC50 in the data set on A549 cell (setting [3]) and on human mPGES-1 were 33 nM and 0.8 nM, respectively.

Consider `CCC[C@@H](C)Oc1ccc(-c2nc(O)nc(-c3cc(CNC(=O)C4(C(F)(F)F)CCCC4)ccc3Cl)n2)cn1` [Example 125], for which the IC50 with A549 cell (setting [2]) was determined as 1.6 nM; on human mPGES-1, 6 nM.

For `CC(C)(C)c1cccc(-c2nc(O)nc(-c3cc(CNC(=O)C4(CF)CCCCCC4)ccc3Cl)n2)c1` [Example 112], the IC50 was found to be 24 nM in the data set on A549 cell (setting [2]) and 3.3 nM on human mPGES-1.

For the compound `CCOc1cccc(-c2nc(O)nc(-c3cc(CNC(=O)C(C)(C)C(F)(F)F)ccc3Cl)n2)c1` [Example 9], the IC50 in the data set with A549 cell (setting [3]) was 37 nM; at human mPGES-1, 0.7 nM.

As for `CC[C@@H](C)Oc1ccc(-c2nc(O)nc(-c3cc(CNC(=O)C(C)(C)C(F)(F)F)ccc3Cl)n2)cn1` [Example 42], the IC50 with A549 cell (setting [3]) came out at 7.9 nM; at human mPGES-1 it was 1.3 nM.

Take `CCCCOc1cccc(-c2nc(O)nc(-c3cc(CNC(=O)C(C)(C)C(F)(F)F)ccc3Cl)n2)c1` [Example 3]: the results for the IC50 with A549 cell (setting [3]) and on human mPGES-1 were 27 nM and 2.1 nM, respectively.

Turning to `CC1(c2cccc(-c3nc(O)nc(-c4cc(CNC(=O)C5(C(F)(F)F)CCCCC5)ccc4Cl)n3)c2)CC1` [Example 64], the figures for the IC50 with A549 cell (setting [2]) and at human mPGES-1 were 5.3 nM and 1.6 nM, respectively.

In the case of `CC(C)c1cccc(-c2nc(O)nc(-c3cc(CNC(=O)C4(C)CCCCC4)ccc3Cl)n2)c1` [Example 16], the IC50 with A549 cell (setting [3]) came out at 34 nM; at human mPGES-1, 0.4 nM.

On to `CC(C)c1cc(-c2nc(O)nc(-c3cc(CNC(=O)C4(C(F)F)CCCC4)ccc3Cl)n2)ccc1Cl` [Example 97], for which the IC50 with A549 cell (setting [2]) is 9 nM; on human mPGES-1, 3.8 nM.

Consider `CCC(CC)(C(=O)NCc1ccc(Cl)c(-c2nc(O)nc(-c3ccc(Cl)c(C(C)C)c3)n2)c1)C(F)F` [Example 119], for which the figures for the IC50 with A549 cell (setting [2]) and at human mPGES-1 were 3 nM and 1.8 nM, respectively.

With `CCC(OC)(C(=O)NCc1ccc(Cl)c(-c2nc(O)nc(-c3ccc(Cl)c(C(C)C)c3)n2)c1)C(F)(F)F` (stereo not drawn) [Example 139], the IC50 in the data set on A549 cell (A549 cell, recombinant human IL-1β stimulation, read-out: cell PGE2 production inhibitory activity (IC50 value)) is 2.1 nM; on human mPGES-1 it was 5.4 nM.

As for `Cc1ccc(-c2nc(O)nc(-c3cc(CNC(=O)C(C)(C)C(F)(F)F)ccc3Cl)n2)cc1C(C)(C)C` [Example 54], the IC50 in the data set on A549 cell (setting [3]) worked out at 2.9 nM; at human mPGES-1 it was 0.5 nM.

Take `CC(C)(C)COc1ccc(-c2nc(O)nc(-c3cc(CNC(=O)C(C)(C)C(F)(F)F)ccc3Cl)n2)cn1` [Example 19]: the IC50 was found to be 1.7 nM in the data set on A549 cell (setting [3]) and 3.3 nM on human mPGES-1.

`CCCOc1ccc(-c2nc(O)nc(-c3cc(CNC(=O)C(C)(C)C(F)(F)F)ccc3Cl)n2)cn1` [Example 2]: the IC50 with A549 cell (setting [3]) was found to be 8.6 nM; on human mPGES-1 it was 1.1 nM.

For the compound `CCCCOc1ccc(-c2nc(O)nc(-c3cc(CNC(=O)C(C)(C)C(F)(F)F)ccc3Cl)n2)cn1` [Example 14], the figures for the IC50 in the data set on A549 cell (setting [3]) and at human mPGES-1 were 4.7 nM and 1.2 nM, respectively.

Take `CC1(c2cccc(-c3nc(O)nc(-c4cc(CNC(=O)C5(CF)CCCCC5)ccc4Cl)n3)c2)CC1` [Example 100]: the IC50 in the data set on A549 cell (setting [2]) is 43 nM; at human mPGES-1, 0.9 nM.

As to `COC1(C(=O)NCc2ccc(Cl)c(-c3nc(O)nc(-c4cccc(C(C)(C)C)c4)n3)c2)CCCC1` [Example 22], the IC50 in the data set with A549 cell (setting [3]) was 16 nM; on human mPGES-1, 0.9 nM.

`CCC(CC)(C(=O)NCc1ccc(Cl)c(-c2nc(O)nc(-c3cccc(C(C)C)c3)n2)c1)C(F)F` [Example 116]: the IC50 in the data set on A549 cell (setting [2]) stood at 7.2 nM; at human mPGES-1 it was 1.2 nM.

Take `CC(C)c1cccc(-c2nc(O)nc(-c3cc(CNC(=O)C4(C(F)F)CCCCCC4)ccc3Cl)n2)c1` [Example 120]: the figures for the IC50 in the data set with A549 cell (setting [2]) and at human mPGES-1 were above 30 nM and 1.8 nM, respectively. For the same compound, the inhibition at 0.03 µM in the data set on A549 cell (Homo sapiens, A549 cell, IL-1β stimulation, at the highest concentration given (0.03 μM), read-out: cell PGE2 production inhibitory activity (%), printed in parentheses after the > bound) turned out to be 43%.

With `CCOCCCOc1ccc(-c2nc(O)nc(-c3cc(CNC(=O)C4(C(F)(F)F)CCCCC4)ccc3Cl)n2)cn1` [Example 68], the figures for the IC50 in the data set with A549 cell (setting [2]) and on human mPGES-1 were 11 nM and 0.6 nM, respectively.

For the compound `CC(C)c1cc(-c2nc(O)nc(-c3cc(CNC(=O)C4(CF)CCCCCC4)ccc3Cl)n2)ccc1Cl` [Example 114], the IC50 in the data set on A549 cell (setting [2]) worked out at 13 nM; at human mPGES-1 it was 3.1 nM.

Take `CC(C)c1cccc(-c2nc(O)nc(-c3cc(CNC(=O)C4(F)CCCC4)ccc3Cl)n2)c1` [Example 41]: the IC50 turned out to be 23 nM with A549 cell (setting [3]) and 1.3 nM on human mPGES-1.

Regarding `COc1ncc(-c2nc(O)nc(-c3cc(CNC(=O)C(C)(C)C(F)(F)F)ccc3Cl)n2)cc1C(C)C` [Example 58], the IC50 in the data set on A549 cell (setting [3]) amounted to 150 nM; at human mPGES-1 it was 1 nM.
